Patent EP4810040A2, “INHIBITORS OF APOL1 AND METHODS OF USING SAME” (priority 2020, dated 2022)
Read-outs that look alike come from different tables or passages of the source.

Molecular target: T1, APOL1 G1 (Homo sapiens, UniProt O14791, I384M/S342G)
T1 sequence (O14791 28-398 S342G/I384M): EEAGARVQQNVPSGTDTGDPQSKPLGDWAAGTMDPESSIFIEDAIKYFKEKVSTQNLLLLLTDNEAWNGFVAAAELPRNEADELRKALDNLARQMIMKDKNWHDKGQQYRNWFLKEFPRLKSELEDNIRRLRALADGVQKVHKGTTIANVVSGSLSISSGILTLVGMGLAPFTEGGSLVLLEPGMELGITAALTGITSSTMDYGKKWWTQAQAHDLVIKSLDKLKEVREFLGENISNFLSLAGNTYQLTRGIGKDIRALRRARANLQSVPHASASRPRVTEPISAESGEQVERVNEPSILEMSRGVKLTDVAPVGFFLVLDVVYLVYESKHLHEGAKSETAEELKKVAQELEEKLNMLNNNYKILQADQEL
Test: MultiTox-Fluor Multiplex Cytotoxicity Assay, tet-inducible APOL1 G1 T-REx-HEK293 cells
Format: cell-based
Design: expressed in transfected cells; host or cells: T-REx HEK293, clone G1 DC3.25 (pAAVS1-Puro-APOL1 G1)
Details: for IC90: read-out: Multi-Tox Assay IC90; for Emax: read-out: Multi-Tox Assay Max Activity (%); for IC50: IP50 = IC50 for cell proliferation
How it was run: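 T-REx-HEK293 cells carrying tet-inducible APOL1 G1 induced with 50 ng/mL tet alongside compound (top 10 µM, 10-point 3-fold, duplicate) for 24 h at 37 °C. MultiTox-Fluor dead/live protease fluorescence ratio read after 30 min; normalized to no-tet (100% viability) and tet-treated (0%) controls, then curve-fitted.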

[1] = Multi-Tox Assay, APOL1 variant (G0/G1/G2) not stated in Table 46
[2] = Multi-Tox Assay, APOL1 variant not stated in Table 46
[3] = HEK293, Multi-Tox Assay, APOL1 variant (G0/G1/G2) of the HEK293 cells not given
[4] = Multi-Tox Assay, APOL1 variant not given

| SMILES | IC90 [3] [nM] | Multi-Tox Assay Max Activity (%) [4] [%] | also measured |
| --- | --- | --- | --- |
| Cn1cc([C@@H]2C[C@]3(C[C@H](C4CC4)N2)OCCc2cc(C(F)(F)F)sc23)nn1 [Compound 383, (2'R,6'S,7S)-2'-cyclopropyl-6'-(1-methyltriazol-4-yl)-2-(trifluoromethyl)spiro[4,5-dihydrothieno[2,3-c]pyran-7,4'-piperidine]] | – | – | IC90 [1]: < 50 nM; Emax [2]: 100% |
| Cc1ccc(Cn2cc([C@@H]3C[C@]4(C[C@H](C)N3)OCC(F)(F)c3cc(Cl)sc34)nn2)nc1 [Compound 334] | > 500 | 96.0 | – |
| Cc1nccc([C@@H]2C[C@]3(C[C@H](C)N2)OCCc2cc(Cl)sc23)n1 (racemic) [Compound 116] | 50 to 500 | 99.4 | – |
| CC(=O)Nc1cccc([C@@H]2C[C@]3(C[C@H](C)N2)OCCc2cc(Cl)sc23)c1 (racemic) [Compound 113] | 50 to 500 | 100.0 | – |
| Cc1cc([C@@H]2C[C@]3(C[C@H](C)N2)OCCc2cc(Cl)sc23)nn1C (racemic) [Compound 98] | < 50 | – | – |
| C[C@H]1C[C@@]2(C[C@@H](c3cn(CCC4CCCOC4)nn3)N1)OCC(F)(F)c1cc(Cl)sc12 (some centres unmarked) [Compound 314] | < 50 | – | – |
| CC(CO)CCn1cc([C@@H]2C[C@]3(C[C@H](C)N2)OC[C@@H](O)c2cc(Cl)sc23)nn1 (some centres unmarked) [Compound 264] | 50 to 500 | 100.0 | – |
| C[C@H]1C[C@@]2(C[C@@H](c3cc4n(n3)CCCO4)N1)OCCc1cc(Cl)sc12 (racemic) [Compound 131] | 50 to 500 | 99.3 | – |
| C[C@H]1C[C@@]2(C[C@@H](c3cn(CC(C)(C)O)nn3)N1)OCC(F)(F)c1cc(Cl)sc12 [Compound 364] | – | – | IC90 [1]: > 500 nM; Multi-Tox Assay Max Activity (%) [2]: 95.0%; IC50 [2]: 50 to 500 nM |
| CC1CC2(CC(c3cccc(C#N)c3)N1)OCCc1cc(Cl)sc12 (centres unmarked) [Compound 24] | < 50 | 100.0 | – |
| C[C@H]1C[C@@]2(C[C@@H](c3cn(Cc4ncc(F)cc4F)nn3)N1)OC[C@@H](O)c1cc(Cl)sc12 [Compound 298] | > 500 | 95.0 | – |
| C[C@H]1C[C@@]2(C[C@@H](c3cn(Cc4ccc(C#N)cc4)nn3)N1)OC[C@@H](O)c1cc(Cl)sc12 [Compound 253] | 50 to 500 | 100.0 | – |
| COc1nccc([C@@H]2C[C@]3(C[C@H](C)N2)OCCc2cc(Cl)sc23)n1 (racemic) [Compound 110] | 50 to 500 | 99.2 | – |
| CC(C)C(=O)NCCn1cc([C@@H]2C[C@]3(C[C@H](C)N2)OC[C@@H](O)c2cc(Cl)sc23)nn1 [Compound 230] | > 500 | 98.0 | – |
| C[C@H]1C[C@@]2(C[C@@H](c3cn(Cc4cocn4)nn3)N1)OC[C@@H](O)c1cc(Cl)sc12 [Compound 291] | 50 to 500 | 100.0 | – |
| CC1CC2(CC(c3ccncc3)N1)OCCc1cc(Cl)sc12 (centres unmarked) [Compound 30] | < 50 | – | – |
| C[C@H]1C[C@@]2(C[C@@H](c3c[nH]c(C4CC4)n3)N1)OCCc1cc(Cl)sc12 (racemic) [Compound 130] | 50 to 500 | – | – |
| C[C@H]1C[C@@]2(C[C@@H](c3cnc(-c4cnn(C)c4)nc3)N1)OCCc1cc(Cl)sc12 [Compound 61] | < 50 | – | Emax [4]: 99.7% |
| Cc1cc(C2CC3(CC(C)N2)OCCc2cc(Cl)sc23)ncn1 (centres unmarked) [Compound 43] | < 50 | 100.0 | – |
| C[C@H]1C[C@@]2(C[C@@H](c3cn(CC4(CO)CC4)nn3)N1)OC[C@@H](O)c1cc(Cl)sc12 [Compound 242] | 50 to 500 | 97.0 | – |
| C[C@H]1C[C@@]2(C[C@@H](C3(N)CC3)N1)OCCc1cc(Cl)sc12 [Compound 373, 1-[(2'S,6'S,7S)-2-chloro-6'-methyl-spiro[4,5-dihydrothieno[2,3-c]pyran-7,4'-piperidine]-2'-yl]cyclopropanamine] | – | – | IC90 [1]: 50 to 500 nM |
| C[C@H]1C[C@@]2(C[C@@H](c3cn(CCO)nn3)N1)OCC(F)(F)c1cc(Cl)sc12 [Compound 361] | – | – | IC90 [1]: 50 to 500 nM; Multi-Tox Assay Max Activity (%) [2]: 98.0% |

| SMILES | IC90 [3] [nM] | Multi-Tox Assay Max Activity (%) [4] [%] | also measured |
| --- | --- | --- | --- |
| CCc1cc([C@@H]2C[C@]3(C[C@H](C)N2)OCCc2cc(Cl)sc23)on1 [Compound 91] | < 50 | – | Emax [4]: 100% |
| Cc1c(Cn2cc([C@@H]3C[C@]4(C[C@H](C)N3)OCC(F)(F)c3cc(Cl)sc34)nn2)cnn1C [Compound 326] | 50 to 500 | 97.0 | – |
| CC1CC2(CC(c3cncnc3)N1)OCCc1cc(Cl)sc12 (centres unmarked) [Compound 45] | < 50 | 100.0 | – |
| C[C@H]1C[C@@]2(C[C@@H](c3cnn(C4CCOCC4)c3)N1)OCCc1cc(Cl)sc12 (racemic) [Compound 100] | < 50 | 99.3 | – |
| C[C@H]1C[C@@]2(C[C@@H](c3cn(Cc4ccc5nc(O)[nH]c5c4)nn3)N1)OCC(F)(F)c1cc(Cl)sc12 [Compound 366] | – | – | IC90 [1]: > 500 nM; Multi-Tox Assay Max Activity (%) [2]: 95.0%; IC50 [2]: 50 to 500 nM |
| C[C@H]1C[C@@]2(C[C@@H](c3cn(CCOc4ccccc4F)nn3)N1)OCC(F)(F)c1cc(Cl)sc12 [Compound 354] | 50 to 500 | – | – |
| C[C@H]1C[C@@]2(C[C@@H](c3cccn4ccnc34)N1)OCCc1cc(Cl)sc12 [Compound 143] | 50 to 500 | 98.0 | – |
| C[C@H]1C[C@@]2(C[C@@H](c3cccnn3)N1)OCCc1cc(Cl)sc12 (racemic) [Compound 92] | < 50 | – | Emax [4]: 100% |
| COc1ccccc1-c1ncc([C@@H]2C[C@]3(C[C@H](C)N2)OCCc2cc(Cl)sc23)cn1 (racemic) [Compound 105] | 50 to 500 | 99.3 | – |
| C[C@H]1CC2(C[C@@H](c3cn(C)nn3)N1)OCC(C)(C)c1sc(Cl)cc12 (single isomer, unassigned) [Compound 15] | < 50 | – | – |
| CC1CC2(CC(C)N1)OCCc1cc(Cl)sc12 (mixture of isomers) [Compound 194, 2-chloro-2',6'-dimethyl-spiro[4,5-dihydrothieno[2,3-c]pyran-7,4'-piperidine]] | 50 to 500 | – | Emax [4]: 98.7% |
| CC1COC2(C[C@@H](c3cn(C)nn3)N[C@@H](C)C2)c2cc(Cl)sc21 (single isomer, unassigned) [Compound 12] | < 50 | 99.3 | – |
| CC(C)c1c[nH]c([C@@H]2C[C@]3(C[C@H](C)N2)OCCc2cc(Cl)sc23)n1 (racemic) [Compound 162] | > 500 | 92.0 | – |
| C[C@H]1C[C@@]2(C[C@@H](c3cn(Cc4cocn4)nn3)N1)OCC(F)(F)c1cc(Cl)sc12 [Compound 331] | 50 to 500 | 98.0 | – |
| Cc1nocc1[C@@H]1C[C@]2(C[C@H](C)N1)OCCc1cc(Cl)sc12 (racemic) [Compound 132] | 50 to 500 | 99.3 | – |
| C[C@H]1C[C@@]2(C[C@@H](c3n[nH]c4ccccc34)N1)OCCc1cc(Cl)sc12 (racemic) [Compound 169] | > 500 | 86.8 | – |
| C[C@H]1C[C@@]2(C[C@@H](c3cn(C)nn3)N1)OC[C@@H](O)c1sc(C(F)(F)F)cc12 [Compound 390, (2'S,4S,6'S,7R)-2'-methyl-6'-(1-methyltriazol-4-yl)-2-(trifluoromethyl)spiro[6,7-dihydrothieno[3,2-c]pyran-4,4'-piperidine]-7-ol] | – | – | IC90 [1]: < 50 nM; Emax [2]: 99% |
| COc1ccc(Cn2cc([C@@H]3C[C@]4(C[C@H](C)N3)OCC(F)(F)c3cc(Cl)sc34)nn2)cc1 [Compound 335] | > 500 | 96.0 | – |
| C[C@H]1C[C@@]2(C[C@@H](CC3CCOCC3)N1)OCCc1cc(Cl)sc12 [Compound 219, (2S,6R)-2-chloro-2'-methyl-6'-(tetrahydropyran-4-ylmethyl)spiro[4,5-dihydrothieno[2,3-c]pyran-7,4'-piperidine]] | > 500 | – | Emax [4]: 88.7% |
| C[C@H]1C[C@@]2(C[C@@H](c3cn(CC#N)nn3)N1)OCC(F)(F)c1cc(Cl)sc12 [Compound 369] | – | – | IC90 [1]: > 500 nM; Multi-Tox Assay Max Activity (%) [2]: 98.0%; IC50 [2]: 50 to 500 nM |
| C[C@H]1C[C@@]2(C[C@@H](c3cn(CCc4ccncn4)nn3)N1)OC[C@@H](O)c1cc(Cl)sc12 [Compound 262] | 50 to 500 | – | – |
| C[C@H]1C[C@@]2(C[C@@H](c3cn(Cc4ccc(O)nc4)nn3)N1)OCC(F)(F)c1cc(Cl)sc12 [Compound 316] | > 500 | 95.0 | – |
